The numbers were not newly measured in patent US20060073479A1 (priority 2001, published 2006), which cites them from elsewhere.

The conditions of data set [1]: urine and feces.
Data set [2] relates to patients treated with paclitaxel. Conditions: in vivo.
Another data set has as its target CYP3A4 (Homo sapiens, UniProt P08684). Conditions: in vitro studies.
Another data set has as its target T1, CYP2C8 (Homo sapiens, UniProt P10632).
T1 sequence (P10632 1-490): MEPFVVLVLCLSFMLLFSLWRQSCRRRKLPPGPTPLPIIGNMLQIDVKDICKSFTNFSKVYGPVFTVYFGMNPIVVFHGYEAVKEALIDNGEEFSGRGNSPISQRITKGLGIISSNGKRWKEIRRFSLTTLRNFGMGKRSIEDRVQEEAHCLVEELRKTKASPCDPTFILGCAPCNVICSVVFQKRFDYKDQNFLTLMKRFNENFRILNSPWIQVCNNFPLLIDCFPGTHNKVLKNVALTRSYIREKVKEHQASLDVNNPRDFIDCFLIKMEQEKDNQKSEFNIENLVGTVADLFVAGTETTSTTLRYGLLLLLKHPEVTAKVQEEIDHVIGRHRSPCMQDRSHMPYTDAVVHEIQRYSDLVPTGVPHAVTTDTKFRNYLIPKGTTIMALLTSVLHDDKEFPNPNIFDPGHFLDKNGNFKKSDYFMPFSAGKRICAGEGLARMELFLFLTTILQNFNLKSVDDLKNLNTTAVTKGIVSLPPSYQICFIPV
Conditions: in vitro studies.

The structures appear in SMILES notation.

CYP3A4, sequence (P08684 whole entry): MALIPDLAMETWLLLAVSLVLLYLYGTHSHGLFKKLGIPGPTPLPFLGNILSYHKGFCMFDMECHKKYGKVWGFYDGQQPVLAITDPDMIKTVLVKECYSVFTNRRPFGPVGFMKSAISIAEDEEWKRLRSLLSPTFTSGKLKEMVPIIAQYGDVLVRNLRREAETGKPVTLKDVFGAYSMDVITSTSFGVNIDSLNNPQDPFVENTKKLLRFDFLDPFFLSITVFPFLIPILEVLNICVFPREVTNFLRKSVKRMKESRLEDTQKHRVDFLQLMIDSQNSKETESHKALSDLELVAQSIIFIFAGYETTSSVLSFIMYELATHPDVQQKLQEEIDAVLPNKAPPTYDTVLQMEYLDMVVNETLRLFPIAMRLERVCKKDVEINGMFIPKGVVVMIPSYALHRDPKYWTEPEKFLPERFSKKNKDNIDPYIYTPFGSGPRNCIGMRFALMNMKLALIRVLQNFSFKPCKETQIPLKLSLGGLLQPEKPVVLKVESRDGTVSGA

As to `N.N.O=C([O-])C1(C(=O)[O-])CCC1.[Pt+2]` [carboplatin], the “metabolism / excretion in words” value in data set [1] is “relatively stable and excreted largely in unchanged form in the urine”.

`CC(=O)O[C@H]1C(=O)[C@@]2(C)[C@H]([C@H](OC(=O)c3ccccc3)[C@]3(O)C[C@H](OC(=O)[C@H](O)[C@@H](NC(=O)c4ccccc4)c4ccccc4)C(C)=C1C3(C)C)[C@]1(OC(C)=O)CO[C@@H]1C[C@@H]2O` [paclitaxel]: the “fraction of treated patients refractory to beneficial effect” value in data set [2] is listed as “about one-third”. Also, at CYP3A4, the “metabolism by CYP3A4” value is reported as “to a lesser extent by CYP3A4”. Besides, the “metabolism by CYP2C8” value at CYP2C8 was “metabolized by CYP2C8”.
